In PMC8427247, “Actinobacillus utilizes a binding protein–dependent ABC transporter to acquire the active form of vitamin B6” (The Journal of Biological Chemistry, 2021):

How the values were obtained:
AfuA D206A = test system: AfuA D206A; design: method as in PMID 26295949; details: AfuA D206A mutant; cited from earlier work
AfuA H205A = test system: AfuA H205A; design: method as in PMID 26295949; details: AfuA H205A mutant; cited from earlier work
P5PA WT [1] = molecular target: T1, P5PA WT (Actinobacillus pleuropneumoniae, UniProt B0BUC2); experiment: Isothermal titration calorimetry (ITC), ligand titrated into P5PA; format: binding
Description: The purification method described in the P5PA protein purification section was modified as follows in order to purify apo-P5PA for ITC. Before elution, P5PAwas denatured in the gravity column. To denature P5PA, 6 M guanidine hydrochloride (GdHCl) was applied to the column, after which a refolding step was performed by stepwise addition of 4.5 M GdHCl, 3 M GdHCl, and finally 1.5 M GdHCl. The protein was then washed with lysis buffer and eluted with elution buffer ([15]). The subsequent purification steps were the same as previously described.
ITC was performed using an auto-iTC200 (Microcal) at the Structure and Biophysical Core Facility within the Peter Gilgan Centre for Research & Learning (Hospital for Sick Children, Toronto, Canada). Runs consisted of titrating ligand loaded into the injection syringe against purified protein, which was loaded into the sample cell. About 45 μM of purified P5PA was stored in ITC buffer (20 mM Tris, pH 8, and 100 mM NaCl) at 4 °C. The same buffer was used to make solutions of 300 μM G6P, 300 μM P5P, and 45 μM bovine serum albumin. P5PA, bovine serum albumin, and ITC buffer alone were titrated with P5P or G6P. The parameter setting was 2 μl/injection for a total of 20 injections. Data applied to calculate binding constants were referenced against runs performed with ligand alone to control for the heat of ligand solvation.

AfuA E229A = test system: AfuA E229A; design: method as in PMID 26295949; details: AfuA E229A mutant; cited from earlier work
P5PA WT [2] = molecular target: T1, P5PA WT; experiment: Microscale thermophoresis (MST) with fluorescently labeled P5PA; format: binding
Description: (§1) P5PA was fluorescently labeled using RED-NHS Second Generation Protein Labeling Kit (NanoTemper). Briefly, 90 μl of purified apo-P5PA at 10 μM was mixed with 10 μl of the provided labeling dye at 300 μM. The mixture was incubated in dark for 30 min and loaded to a special gravity column that is pre-equilibrated in PBS with 0.05% Tween-20 (PBST). After washing the column with 550 μl of PBST, another 450 μl of PBST was added to elute the fluorescently labeled apo-P5PA. The yield of the labeled P5PA was determined by 280-nm readings made on a Nanodrop.
(§2) A target compound was successively diluted in PBST by a dilution factor of two to make a total of 16 different concentrations. Then, 10 μl of the labeled P5PA was added to an equal volume of the diluted compounds and loaded to standard capillaries (NanoTemper). The Binding Affinity Mode of Monolith NT.115 (NanoTemper) was used to detect fluorescence changes and deduct Kd.
(§3) Supplementary Table2. The concentrations of protein and compounds used in MST
(§4) Labeled Protein Concentration Compound Highest Working
(§5) P5PA 25 Pyridoxal-5’-phosphate (P5P) 1.40 µM
(§6) P5PA 25 Pyridoxamine (PM) 448 mM

[3] = test system: A. pleuropneumoniae pdxS and pdxT disrupted mutants; design: method as in PMID 28448619; details: supplementation with 10 μM P5P; cited from earlier work
[4] = test system: E. coli K-12 ΔpdxB mutant; experiment: E. coli growth assay in M9 minimal media supplemented with P5P; format: cell-based, Escherichia coli
Description: The ΔpdxB mutant of E. coli K-12 strain was obtained from the Keio collection ([45]). The ΔpdxB mutant was transformed with either pSC101, pSC101-P5PAB, or pSC101-P5PAB + AfuC and grown in LB broth overnight at 37 °C with shaking. The starters were then washed twice with M9 medium and inoculated at an absorbance of 0.05 at 600 nm into M9 medium supplemented with P5P. The P5P concentrations used were 0, 1, 2.5, and 5 μM. Growth assays were performed in both culture tubes and 100-well microplates ([15], [17]). For cell growth in culture tubes, 5 ml of P5P-supplemented M9 was used, and readings of absorbance at 600 nm were measured after a 23-h incubation at 37 °C with shaking. For cell growth in 100-well microplates, 200 μl of P5P-supplemented M9 was applied to each well, and microplates were incubated in a Bioscreen C microplate reader (Growth Curves USA) at 37 °C with shaking. Absorbance values at 600 nm were measured every 15 min for a time course of 40 h.

[5] = test system: WT strain of E. coli K-12; experiment: as above; format: cell-based, Escherichia coli; details: P5P 0 to 10 μM, 24 h incubation
P5PA Y103A = molecular target: T2, P5PA Y103A (Actinobacillus pleuropneumoniae, UniProt B0BUC2, Y129A); experiment: Microscale thermophoresis (MST) with fluorescently labeled P5PA mutant; format: binding
T2 sequence (B0BUC2 26-343 Y129A): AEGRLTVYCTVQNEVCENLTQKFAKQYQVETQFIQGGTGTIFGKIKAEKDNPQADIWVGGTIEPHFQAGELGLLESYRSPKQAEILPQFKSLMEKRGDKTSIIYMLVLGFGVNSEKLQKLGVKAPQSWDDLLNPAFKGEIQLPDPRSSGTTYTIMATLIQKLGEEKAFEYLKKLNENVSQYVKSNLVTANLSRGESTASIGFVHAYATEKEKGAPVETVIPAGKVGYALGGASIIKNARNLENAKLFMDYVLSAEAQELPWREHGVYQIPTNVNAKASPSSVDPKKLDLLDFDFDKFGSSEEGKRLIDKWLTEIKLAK
Description: as §1, §2, §3, §4, §5, §6

P5PA T149A = molecular target: T3, P5PA T149A (Actinobacillus pleuropneumoniae, UniProt B0BUC2, T175A); experiment: as above; format: binding
T3 sequence (B0BUC2 26-343 T175A): T2 sequence (B0BUC2 26-343 Y129A)
Description: as §1, §2, §3, §4, §5, §6

P5PA H203A = molecular target: T4, P5PA H203A (Actinobacillus pleuropneumoniae, UniProt B0BUC2, H229A); experiment: as above; format: binding
T4 sequence (B0BUC2 26-343 H229A): T2 sequence (B0BUC2 26-343 Y129A)
Description: as §1, §2, §3, §4, §5, §6

[6] = MST, P5PA WT, n = 3, read-out: Kd

SMILES: O=C[C@H](O)[C@@H](O)[C@H](O)[C@H](O)COP(=O)(O)O [G6P, glucose-6-phosphate]
- binding affinity (AfuA D206A): undetectable
- binding affinity (AfuA H205A): undetectable
- binding activity (P5PA WT [1]; ITC, 300 μM ligand into 45 μM P5PA): no significant binding activity
- released heat for each titration (P5PA WT [1]; ITC, 300 μM ligand into 45 μM P5PA, insufficient to calculate a dissociation constant): approximately 3 kJ/mol
- binding affinity (AfuA E229A): undetectable
- Kd (P5PA WT [2]; [6]): 11000 ± 3000 µM

SMILES: Cc1ncc(COP(=O)(O)O)c(C=O)c1O [P5P, pyridoxal-5′-phosphate]
- growth of pdxS/pdxT mutants [3]: rescued growth
- growth defects of the four transformants and the ΔpdxB mutant ([4]; M9, P5P at 5 μM): partially restored
- growth of ΔpdxB mutant expressing pSC101-P5PAB + AfuC ([4]; M9, P5P at 1 and 2.5 μM, p < 0.01, two-tailed t test): rescued
- growth of ΔpdxB mutant ([4]; M9 minimal media, P5P 0 to 10 μM, 24 h incubation): severe growth deficiency in all conditions except P5P concentrations of 5 and 10 μM
- growth of WT strain [5]: not affected by the concentration of supplemented P5P
- Kd (P5PA Y103A): 17 ± 8 µM
- Kd (P5PA T149A): 1.3 ± 0.3 µM
- Kd (P5PA H203A): 10 ± 4 µM
- Kd (P5PA WT [1]): 0.036 ± 0.007 µM
- Kd (P5PA WT [2]): 0.028 ± 0.015 µM

SMILES: Cc1ncc(CO)c(C=O)c1O [PL, pyridoxal]
- Kd (P5PA WT [2]; [6]): 13000 ± 4000 µM

SMILES: Cc1ncc(CO)c(CN)c1O [PM, pyridoxamine]
- Kd (P5PA WT [2]; [6]): 8000 ± 4000 µM
